The results in this text go back to BindingDB's records for doi:10.1021/jm970560h (Warner-Lambert, 1998).

The structures appear in SMILES notation.

For this assay, the target named is Sterol O-acyltransferase 1 (ACAT) (Mus musculus) (UniProt Q61263). Kind of assay: Inhibition of Acyl coenzyme A:cholesterol acyltransferase by cellular MAI2 assay.

In general, IC50 refers to the midpoint of a concentration-inhibition curve. High values mean weaker potency in that assay, low ones greater potency in that assay.

Chain of Sterol O-acyltransferase 1 (ACAT) (Mus musculus) (Q61263 whole entry, looked up): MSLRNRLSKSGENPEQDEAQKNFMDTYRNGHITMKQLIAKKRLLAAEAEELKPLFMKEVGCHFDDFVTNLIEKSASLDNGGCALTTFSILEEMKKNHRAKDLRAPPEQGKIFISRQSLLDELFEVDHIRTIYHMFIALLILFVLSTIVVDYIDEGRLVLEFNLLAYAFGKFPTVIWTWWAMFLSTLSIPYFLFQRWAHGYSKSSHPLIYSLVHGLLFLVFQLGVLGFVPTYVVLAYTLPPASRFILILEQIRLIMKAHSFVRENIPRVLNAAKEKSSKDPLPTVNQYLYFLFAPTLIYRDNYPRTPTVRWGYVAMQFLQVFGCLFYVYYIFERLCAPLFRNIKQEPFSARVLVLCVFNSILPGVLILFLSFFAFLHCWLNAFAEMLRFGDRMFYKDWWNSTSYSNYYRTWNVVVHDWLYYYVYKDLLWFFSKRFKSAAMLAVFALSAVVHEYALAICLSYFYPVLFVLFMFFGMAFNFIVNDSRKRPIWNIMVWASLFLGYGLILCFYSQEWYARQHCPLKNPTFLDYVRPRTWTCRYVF

On to `CCCCCCCCCCCCOC(=O)C(C(=O)Nc1c(C(C)C)cccc1C(C)C)c1ccccc1` (stereo unspecified) [N-(2,6-Diisopropyl-phenyl)-2-phenyl-malonamic acid dodecyl ester], for which the IC50 was 20 nM.
